In patent US9732047B2, “N-alkoxyamide conjugates as imaging agents” (Lantheus Medical Imaging, Inc., priority 2008, dated 2017):
Where two headings read alike, the source gives them in different places.

Columns and labels:
[1] = test system: Aorta bearing atherosclerotic plaque; assay: Ex-vivo blood vessel binding assay; set-up: species or system New Zealand white rabbits; conditions: 153Gd-labeled compound 0.135 μCi in PBS, 2 h at 37° C., plaque-bearing rabbit aorta sections; percentage of initial activity
Description: Aorta bearing atherosclerotic plaque was obtained from New Zealand white rabbits that were balloon stripped along the abdominal aorta and placed on a high fat diet (0.5% cholesterol) for 16-22 weeks. Vascular injury was produced with a 4-F Fogarty catheter along the abdominal aorta and right iliofemoral artery. This procedure generates an accelerated complex lesion development with a lipid rich core covered by a fibrous cap in rabbits. Harvested aorta sections (0.5 cm) were incubated with 0.135 μCi of ^153Gd-labeled compound diluted in phosphate buffered saline (450 μL) for 2 h at 37° C. The supernatant was removed and analyzed by HPLC to assay compound stability. The tissue section was then washed with phosphate buffered saline (3×10 mL), then resuspended (10 mL) and incubated at 37° C. an additional 1 h. The supernatant was then removed, the washing process repeated and the tissue finally counted on a gamma counter. The amount of compound bound to the tissue was determined as a percentage of the initial activity according to the following formula: […]

[2] = test system: aorta; conditions: 60 min post injection; for aorta (% ID/g ± SD): 0.01-0.05 mCi/kg bolus via marginal ear vein
Description: Atherosclerosis was induced in New Zealand White male rabbits (3 kg) with aortic balloon endothelial injury (vide supra) followed by feeding a 0.5% cholesterol diet for 22 weeks. Test compounds were administered at 0.01-0.05 mCi/kg to anesthetized rabbits in a single, bolus injection via the marginal ear vein. Blood samples were collected from the central ear artery at 0, 2, 5, 7, 10, 15, 30 and 60 min post injection. Rabbits were euthanized at 60 min post injection for tissue harvesting (blood, muscle, bile, urine, kidney, liver, spleen, heart, lung, colon, small intestine, stomach, testes and in some cases, sternum, ligament and right ear). Abdominal aorta (upper, middle, and lower) and left and right femoral arteries were also collected. All samples were weighed and assayed for radioactivity; uptake is expressed as percentage of injected dose per gram of tissue (% ID/g).

[3] = test system: aorta; conditions: 60 min post injection; for aorta uptake (% ID/g): ApoE mice on high-fat diet 35-42 weeks, 0.3-0.4 mCi/kg bolus via tail vein; for aorta:blood / aorta:heart: ApoE mice, uptake ratio
Description: The apolipoprotein E (ApoE) knockout mouse is a model of hypercholesterolemia that develops atherosclerotic lesions in the brachiocephalic artery, the aortic arch and the abdominal aorta. Mice were fed a high-fat diet to accelerate plaque formation and compounds were tested in the mice between 35-42 weeks on diet. Test compounds were administered at 0.3-0.4 mCi/kg to anesthetized mice in a single, bolus injection via the tail vein. Blood samples were collected via the tail between 0-30 min post injection for pharmacokinetic analysis and mice were euthanized by CO2 at 60 min for tissue harvesting. The aorta was first flushed with saline through the left ventricle exiting via the femoral vein then removed from the heart to the renal bifurcation; additional biological samples were also collected (blood, muscle, liver, kidney, bile, urine, heart, femur, reproductive organ, lung, spleen and innominate artery). All samples were weighed and assayed for radioactivity; uptake is expressed as a percentage of injected dose per gram of tissue (% ID/g).

[4] = control rabbit (non-plaque bearing)

Row | Structure (SMILES) | % bound [1] | aorta (% ID/g ± SD) ([2]; plaque rabbit) | aorta:blood ([2]; plaque rabbit) | aorta:heart ([2]; plaque rabbit) | aorta uptake (% ID/g) [3] | aorta:blood [3] | aorta:heart [3] | aorta (% ID/g ± SD) [2, 4] | aorta:blood ([2]; control rabbit) | aorta:heart ([2]; control rabbit)
1 | [153Gd+3].[NH3+][C@H](CCc1ccccc1)C(=O)NOCc1ccc(CNC(=O)CN(CCN(CC(=O)[O-])CC(=O)[O-])CCN(CC(=O)[O-])CC(=O)[O-])cc1 [Example 37] | 12.8% | 0.087 ± 0.010 % ID/g | 2.1 | 4.6 | 10.4 ± 1.4 % ID/g | 4.2 | 16.2 |  |  | 
2 | N[C@H](CCc1ccccc1)C(=O)NOCc1ccc(CNC(=O)CN2CCN(CC(=O)[O-])CCN(CC(=O)[O-])CCN(CC(=O)[O-])CC2)cc1.[153Gd+3] [Example 38] | 19.1% | 0.103 ± 0.002 % ID/g | 2.4 | 5.1 | 11.6 ± 0.8 % ID/g | 5.5 | 20.5 | 0.196 ± 0.023 % ID/g | 5.1 | 11.0
3 | [153Gd+3].[NH3+][C@@H](CCc1ccccc1)C(=O)NOCc1ccc(CNC(=O)CN(CCN(CC(=O)[O-])CC(=O)[O-])CCN(CC(=O)[O-])CC(=O)[O-])cc1 [Example 39] | 15.8% |  |  |  | 6.1 ± 0.4 % ID/g | 11.4 | 13.6 |  |  | 
4 | CC(C)C[C@@H]([NH3+])C(=O)NOCCCCCCNC(=O)CN(CCN(CC(=O)[O-])CC(=O)[O-])CCN(CC(=O)[O-])CC(=O)[O-].[153Gd+3] [Example 40] | 7.2% |  |  |  | 3.6 ± 0.3 % ID/g | 3.4 | 8.4 |  |  | 
5 | [153Gd+3].[NH3+][C@H](Cc1ccc(-c2ccccc2)cc1)C(=O)NOCCCCCCNC(=O)CN(CCN(CC(=O)[O-])CC(=O)[O-])CCN(CC(=O)[O-])CC(=O)[O-] [Example 41] | 28.7% |  |  |  | 2.0 ± 0.1 % ID/g | 7.2 | 20.4 |  |  | 
6 | [153Gd+3].[NH3+][C@H](CC1CCCCC1)C(=O)NOCCCCCCNC(=O)CN(CCN(CC(=O)[O-])CC(=O)[O-])CCN(CC(=O)[O-])CC(=O)[O-] [Example 42] | 17.9% |  |  |  | 8.1 ± 1.1 % ID/g | 8.0 | 18.0 |  |  | 
7 | [153Gd+3].[NH3+][C@H](Cc1c[nH]c2ccccc12)C(=O)NOCCCc1ccc(CNC(=O)CN(CCN(CC(=O)[O-])CC(=O)[O-])CCN(CC(=O)[O-])CC(=O)[O-])cc1 [Example 43] | 27.1% |  |  |  | 6.0 ± 1.7 % ID/g | 2.7 | 9.0 |  |  | 
8 | [153Gd+3].[NH3+][C@H](CCc1ccccc1)C(=O)NOCCCc1ccc(CNC(=O)CN(CCN(CC(=O)[O-])CC(=O)[O-])CCN(CC(=O)[O-])CC(=O)[O-])cc1 [Example 44] | 27.3% |  |  |  | 8.4 ± 0.2 % ID/g | 3.2 | 12.5 |  |  | 
9 | [153Gd+3].[NH3+][C@H](CCc1ccccc1)C(=O)NOCCCCCCNC(=O)CN(CCN(CC(=O)[O-])CC(=O)[O-])CCN(CC(=O)[O-])CC(=O)[O-] [Example 45] | 14.4% |  |  |  | 9.0 ± 0.2 % ID/g | 2.1 | 12.1 |  |  | 
10 | CC(C)C[C@@H]([NH3+])C(=O)NOc1ccc(CNC(=O)CN(CCN(CC(=O)[O-])CC(=O)[O-])CCN(CC(=O)[O-])CC(=O)[O-])cc1.[153Gd+3] [Example 46] | 0.9% |  |  |  | 0.9 ± 0.2 % ID/g | 1.1 | 4.9 |  |  | 
11 | [153Gd+3].[NH3+][C@H](CCc1ccccc1)C(=O)NOc1ccc(CNC(=O)CN(CCN(CC(=O)[O-])CC(=O)[O-])CCN(CC(=O)[O-])CC(=O)[O-])cc1 [Example 47] | 6.6% |  |  |  | 4.7 ± 0.4 % ID/g | 0.7 | 4.8 |  |  | 
12 | CC(C)C[C@@H]([NH3+])C(=O)NOCCc1ccc(CNC(=O)CN(CCN(CC(=O)[O-])CC(=O)[O-])CCN(CC(=O)[O-])CC(=O)[O-])cc1.[153Gd+3] [Example 49] | 9.1% |  |  |  | 4.9 ± 0.2 % ID/g | 5.5 | 22.9 |  |  | 
13 | [153Gd+3].[NH3+][C@H](CCc1ccccc1)C(=O)NOCCc1ccc(CNC(=O)CN(CCN(CC(=O)[O-])CC(=O)[O-])CCN(CC(=O)[O-])CC(=O)[O-])cc1 [Example 50] | 24.2% |  |  |  | 10.4 ± 2.4 % ID/g | 3.7 | 13.5 |  |  | 
14 | CONC(=O)C(CCc1ccccc1)NCc1ccc(CNC(=O)CN2CCN(CC(=O)[O-])CCN(CC(=O)[O-])CCN(CC(=O)[O-])CC2)cc1.[153Gd+3] (centres unmarked) [Example 52] | 6.9% |  |  |  | 6.1 ± 1.2 % ID/g | 2.0 | 9.2 |  |  | 
15 | O=C([O-])CN1CCN(CC(=O)[O-])CCN(CC(=O)NCc2ccc(CNC(CCc3ccccc3)C(=O)NOCc3ccccc3)cc2)CCN(CC(=O)[O-])CC1.[153Gd+3] (centres unmarked) [Example 53] |  |  |  |  | 1.5 ± 0.1 % ID/g | 0.8 | 4.2 |  |  | 
16 | CONC(=O)[C@H](N)Cc1ccc(CNC(=O)CN2CCN(CC(=O)[O-])CCN(CC(=O)[O-])CCN(CC(=O)[O-])CC2)cc1.[153Gd+3] [Example 54] |  |  |  |  | 2.5 ± 0.5 % ID/g | 1.2 | 5.3 |  |  | 
17 | N[C@H](Cc1ccc(CNC(=O)CN2CCN(CC(=O)[O-])CCN(CC(=O)[O-])CCN(CC(=O)[O-])CC2)cc1)C(=O)NOCc1ccccc1.[153Gd+3] [Example 55] |  |  |  |  | 3.0 ± 2.3 % ID/g | 1.0 | 8.8 |  |  | 
18 | CC(C)C[C@@H]([NH3+])C(=O)NOCc1ccc(CNC(=O)CN(CCN(CC(=O)[O-])CC(=O)[O-])CCN(CC(=O)[O-])CC(=O)[O-])cc1.[153Gd+3] [Example 56] |  |  |  |  | 8.5 ± 1.8 % ID/g | 5.5 | 21.2 |  |  | 
19 | [153Gd+3].[NH3+][C@H](Cc1ccc2ccccc2c1)C(=O)NOCc1ccc(CNC(=O)CN(CCN(CC(=O)[O-])CC(=O)[O-])CCN(CC(=O)[O-])CC(=O)[O-])cc1 [Example 57] | 30.6% |  |  |  | 11.1 ± 0.3 % ID/g | 5.0 | 17.8 |  |  | 
20 | [153Gd+3].[NH3+][C@H](Cc1ccccc1)C(=O)NOCc1ccc(CNC(=O)CN(CCN(CC(=O)[O-])CC(=O)[O-])CCN(CC(=O)[O-])CC(=O)[O-])cc1 [Example 58] | 7.3% |  |  |  | 6.1 ± 0.2 % ID/g | 6.5 | 17.9 |  |  | 
21 | CC(C)C[C@@H](N)C(=O)NOCc1ccc(CNC(=O)CN2CCN(CC(=O)[O-])CCN(CC(=O)[O-])CCN(CC(=O)[O-])CC2)cc1.[153Gd+3] [Example 59] | 5.2% |  |  |  | 8.2 ± 1.3 % ID/g | 3.7 | 15.4 |  |  | 
22 | N[C@H](Cc1ccc2ccccc2c1)C(=O)NOCc1ccc(CNC(=O)CN2CCN(CC(=O)[O-])CCN(CC(=O)[O-])CCN(CC(=O)[O-])CC2)cc1.[153Gd+3] [Example 60] | 30.9% | 0.108 ± 0.012 % ID/g | 2.4 | 4.0 | 18.4 ± 2.4 % ID/g | 9.8 | 25.2 | 0.187 ± 0.022 % ID/g | 3.8 | 6.4
23 | [153Gd+3].[NH3+][C@H](Cc1cc2ccccc2[nH]1)C(=O)NOCc1ccc(CNC(=O)CN(CCN(CC(=O)[O-])CC(=O)[O-])CCN(CC(=O)[O-])CC(=O)[O-])cc1 [Example 61] | 19.9% |  |  |  | 19.3 ± 0.2 % ID/g | 10.9 | 20.4 |  |  | 
24 | [153Gd+3].[NH3+][C@H](Cc1ccc(O)cc1)C(=O)NOCc1ccc(CNC(=O)CN(CCN(CC(=O)[O-])CC(=O)[O-])CCN(CC(=O)[O-])CC(=O)[O-])cc1 [Example 63] | 11.7% |  |  |  | 8.7 ± 0.4 % ID/g | 6.0 | 13.0 |  |  | 
